The source of these data is patent US20100215618A1, “NOVEL COMPOUNDS - 644” (Arrow Therapeutics Limited, priority 2009, published 2010).

Read-outs that look alike come from different tables or passages of the source.

The subject of data set [1] is HCV genotype 1a replicon cells Htat2ANeo. Put plainly: 1a Replicon Assay (cell-based anti-NS5a ELISA). The following applies: Hepatitis C virus, 72 h. As to the method:
HCV genotype la replicon cells Htat2ANeo (University of Texas), containing neomycin phosphotransferase fusion protein and EMCV-IRES driven HCV polyprotein with cell culture adaptive mutations, and control cells, Et2AN.
Cells were cultured at 37° C./5% CO2 and split twice a week. G418 at 0.5 mg/ml and Blastocidin at 2 mg/ml were added to the culture medium but not the assay medium.
The culture medium consisted of DMEM with […] glucose and Glutamax (Gibco 61965-026) supplemented with 1× non-essential amino acids (Invitrogen 11140-035), 0.5 mg/ml G418 (Invitrogen 10131-027), 2 mg/ml Blastocidin (PAA) and 10% is Australian foetal calf serum (Invitrogen 10099-141).
Replicon and control cells were trypsinised and counted. Replicon cells were diluted to 90,000 cells/ml and 100 μl of this used to seed columns 2-4, […] and 10-12 of a black, clear bottom 96-well plate for every three compounds to be tested for IC50. Control cells were diluted to 60,000 cells/ml and 100 μl of this used to seed columns 1, 5 and 9 of the plate. Well H1 was left empty as the blank. Plates were then incubated at 37° C./5% CO2 for 24 h.
On the following day compound dilutions were prepared in medium at twice their desired final concentration in a clear round bottomed plate.
Controls and compounds were transferred from the dilution plate to the assay plates (containing the cells) at 100 μl/well in quadruplicate wells, one well containing control cells and 3 wells containing replicon cells.
Exception: no compound was added to row H of the plate and 100 μl of 1% DMSO was added to these instead. Plates were then incubated at 37° C. with 5% CO2 for 72 h. At the end of the incubation time, any reduction in cell viability was assayed and a cell-based enzyme linked immunosorbent assay (ELISA) was performed. The media/compound was removed from all wells and replaced with 100 μl/well serum-free media and 20 μl/well Cell Titre Blue (Promega G8081). Following incubation at 37° C./5% CO2 for 2 h plates were read on a microplate fluorometer (Molecular Devices) using an excitation of 570 nm and an emission of 590 nm The TD50, the concentration of drug required to reduce 50% of Cell Titre Blue relative to the DMSO controls, was calculated by plotting the fluorescence at 590 nm after substraction of background against drug concentration.
The media/Cell Titre Blue was removed and plates washed in PBS and gently tapped dry before addition of 50 μL per well of 75% acetone/25% methanol mixture for 3 minutes. The fixative was then discarded and wells were washed with PBS before addition of 100 μl/well of blocking solution (2% non-fat dry milk and 0.05% Tween-20 in 0.85% NaCl). Plates were then incubated at 37° C. in a shaking incubator for 60 min. Blocking solution was discarded and 50 μl of mouse anti-NS5a antibody (Virostat 1877) at 1:100 dilution in blocking buffer was added to all wells. Plates were incubated at 37° C. in a shaking incubator for 90 min Antibody was then discarded and plates were washed 4 times by immersion in 0.85% NaCl/0.05% Tween-20. After washing plates were tapped dry gently and 50 μl of secondary antibody (Dako P0260 Rabbit anti-mouse horseradish peroxidase) at 1:1000 dilution in blocking buffer was added to the wells. Plates were incubated at 37° C. in a shaking incubator for 60 min. Antibody was discarded and plates were washed 6 times by immersion in 0.85% NaCl/0.05% Tween-20 and once in PBS. Finally, 50 μl of substrate (SigmaFast ortho-phenylene diamine dihydrochloride (OPD)) was added per well and the colorimetric reaction was allowed to proceed in the dark for 5 to 15 minutes depending on the strength or the signal. The reaction was stopped by addition of 25 μl/well of 20% sulphuric acid. Plates were read on the SpectraMax microplate reader at 490 nm fixed wavelength. […]

Data set [2] relates to HCV replicon cells Huh 9B (genotype 1b). As to the kind of experiment: 1b Replicon Assay (luciferase readout). The settings on record: Hepatitis C virus, Huh 9B replicon cells, 72 h, luciferase activity. The class given is cell-based. The protocol: (§1) HCV replicon cells Huh 9B (ReBlikon), containing the firefly luciferase-ubiquitin-neomycin phosphotransferase fusion protein and EMCV-IRES driven HCV polyprotein with cell culture adaptive mutations.
Cells were cultured at 37° C./5% CO2 and split twice a week. G418 at 0.5 mg/ml was added to the culture medium but not the assay medium.
The culture medium consisted of DMEM with […] glucose and Glutamax (Gibco 61965-026) supplemented with 1× non-essential amino acids (Invitrogen 11140-035), 0.5 mg/ml G418 (Invitrogen 10131-027) and 10% Australian foetal calf serum (Invitrogen 10099-141).
(§2) Replicon cells were trypsinised and counted. Cells were diluted to 100,000 cells/ml and 100 μl used to seed one opaque white 96-well plate (for the replicon assay) and one flat-bottomed clear plate (for the tox assay) for every five compounds to be tested for IC50. Wells G12 and H12 were left empty in the clear plate as the blank. Plates were then incubated at 37° C./5% CO2 for 24 h.
(§3) On the following day compound dilutions were prepared in medium at twice their desired final concentration in a clear round bottomed plate. All dilutions have a final DMSO concentration of 1%.
(§4) Controls and compounds were transferred from the dilution plates to the assay plates (containing the cells) at 100 μl/well in duplicate wells.
(§5) Exception: no compound was added to wells A1 and A2 of either plate and 100 μl of 1% DMSO was added to these instead. Plates were then incubated at 37° C./5% CO2 for 72 h.
At the end of the incubation time, the cells in the white plate were washed in PBS (100 μL per well) and dried by tapping before addition of 204 per well of lysis buffer (25 mM tris-phosphate, 8 mM MgCl2, 1 mM DTT, 1% Triton X-100, 15% glycerol; pH to 7.8 using KH2PO4 prior to Triton X-100 and glycerol addition). Aliquots of substrate (23.5 mM beetle luciferin (Promega E1603), 26 mM ATP (Sigma O-2060) in […] Tris buffer pH 7.8) were stored at −80° C. Prior to use, required amount of luciferin was thawed and diluted 1:50 in luciferase assay buffer (20 mM Tricine (Sigma T-0377), 1.07 mM magnesium carbonate hydroxide (Sigma M-5671), 0.1 mM EDTA (Sigma E-5134), 2.67 mM MgSO4(BDH 101514Y), 33.3 mM dithiothreitol (Sigma 150460) pH 7.8).
After 5-60 min incubation in lysis buffer at room temperature, a plate was inserted into the luminometer and 100 μl luciferase assay reagent was added by the injector of the luminometer. The signal was measured using a 1 second delay followed by a 4 second measurement programme. The IC50, the concentration of the drug required for reducing the replicon level by 50% in relation to the untreated cell control value, was calculated from the plot of the percentage reduction of the luciferase activity vs. drug concentration.
A general note: A replicon is a self-replicating genome or part of one, used to study replication in cells.

The test system of data set [3] is HCV replicon cells Huh 9B. The class given is cell-based. The settings on record: Huh 9B replicon cells, 72 h, methylene blue, total cell area reduced by 50%. The protocol: as §1, §2, §3, §4, §5
The clear plate was stained with 100 μA 0.5% methylene blue in 50% ethanol at room temperature for 1 h, followed by solvation of the absorbed methylene blue in 100 μl per well of 1% lauroylsarcosine. Absorbance of the plate was measured on a microplate spectrophotometer (Molecular Devices) and the absorbance for each concentration of compound expressed as a proportion of the relative DMSO control. The TD50, the is concentration of drug required to reduce the total cell area by 50% relative to the DMSO controls, was calculated by plotting the absorbance at 620 nm after background substraction against drug concentration.

[4] abbreviates: read-out: pIC50 1a Replicon (converted).
The mark [5] stands for this setting: read-out: pIC50 1b Replicon (converted).

As for `CC(C)(C)OC(=O)N[C@H](C(=O)N1CCC[C@H]1c1ncc(-c2ccc(-c3ccc(C(=O)Nc4ccc(CN5CCS(=O)(=O)CC5)cc4)cc3)cc2)[nH]1)c1ccccc1` [Example 1, Tert-butyl N-[(1S)-2-[(2S)-2-[5-[4-[4-[[4-[(1,1-dioxo-1,4-thiazinan-4-yl)methyl]phenyl]carbamoyl]phenyl]phenyl]-1H-imidazol-2-yl]pyrrolidin-1-yl]-2-oxo-1-phenyl-ethyl]carbamate], the IC50 in data set [1] (read-out: HCV IC50 Elisa 1a) is 41.4 nM; in data set [1] (setting [4]), 41.7 nM; in data set [2] (read-out: HCV IC50 1b Replicon) it was 0.01 nM; in data set [2] (setting [5]) it was 0.0138 nM. The “HCV TD50 Replicon” value in data set [3] was >25 µM.

With `COC(=O)N[C@@H](C)C(=O)N1CCC[C@H]1c1ncc(-c2ccc(-c3ccc(C(=O)Nc4ccc(CN5CCS(=O)(=O)CC5)cc4)cc3)cc2)[nH]1` [Example 4, Methyl N-[(1S)-2-[(2S)-2-[5-[4-[4-[[4-[(1,1-dioxo-1,4-thiazinan-4-yl)methyl]phenyl]carbamoyl]phenyl]phenyl]-1H-imidazol-2-yl]pyrrolidin-1-yl]-1-methyl-2-oxoethyl]carbamate], the IC50 was 25.9 nM in data set [1] (read-out: HCV IC50 Elisa 1a), 25.7 nM in data set [1] (setting [4]), 1.18 nM in data set [2] (read-out: HCV IC50 1b Replicon) and 1.17 nM in data set [2] (setting [5]). Further, the “HCV TD50 Replicon” value in data set [3] came to 22.44 µM.

Consider `COC(=O)N[C@@H](C(=O)N1CCC[C@H]1c1ncc(-c2ccc(-c3ccc(C(=O)Nc4ccc(CN5CCS(=O)(=O)CC5)cc4)cc3)cc2)[nH]1)[C@H](C)O` [Example 18, Methyl N-[(1R,2S)-1-[(2S)-2-[5-[4-[4-[[4-[(1,1-dioxo-1,4-thiazinan-4-yl)methyl]phenyl]carbamoyl]phenyl]phenyl]-1H-imidazol-2-yl]pyrrolidine-1-carbonyl]-2-hydroxy-propyl]carbamate], for which the IC50 in data set [2] (read-out: HCV IC50 1b Replicon) and in data set [2] (setting [5]) was 126 nM each time. Besides, the “HCV TD50 Replicon” value in data set [3] was >25 µM.

`COC(=O)N[C@H](CO)C(=O)N1CCC[C@H]1c1ncc(-c2ccc(-c3ccc(C(=O)Nc4ccc(CN5CCS(=O)(=O)CC5)cc4)cc3)cc2)[nH]1` [Example 19, Methyl N-[(1R)-2-[(2S)-2-[5-[4-[4-[[4-[(1,1-dioxo-1,4-thiazinan-4-yl)methyl]phenyl]carbamoyl]phenyl]phenyl]-1H-imidazol-2-yl]pyrrolidin-1-yl]-1-(hydroxymethyl)-2-oxo-ethyl]carbamate]: the IC50 in data set [2] (read-out: HCV IC50 1b Replicon) is 43.2 nM; in data set [2] (setting [5]), 43.7 nM. In addition, the “HCV TD50 Replicon” value in data set [3] was 21.4 µM.

Turning to `COC(=O)N[C@@H](C(=O)N1CCC[C@@H]1c1ncc(-c2ccc(-c3ccc(C(=O)Nc4ccc(CN5CCS(=O)(=O)CC5)cc4)cc3)cc2)[nH]1)C(C)C` [Example 27, methyl N-[(1R)-1-[(2R)-2-[5-[4-[4-[[4-[(1,1-dioxo-1,4-thiazinan-4-yl)methyl]phenyl]carbamoyl]phenyl]phenyl]-1H-imidazol-2-yl]pyrrolidine-1-carbonyl]-2-methyl-propyl]carbamate], the IC50 was 15.3 nM in data set [2] (read-out: HCV IC50 1b Replicon) and 15.1 nM in data set [2] (setting [5]). The “HCV TD50 Replicon” value in data set [3] is >25 µM.

On to `COC(=O)N[C@H](C(=O)N1CCCC[C@H]1c1ncc(-c2ccc(-c3ccc(C(=O)Nc4ccc(CN5CCS(=O)(=O)CC5)cc4)cc3)cc2)[nH]1)c1ccccc1` [Example 51, Methyl N-[(1S)-2-[(2S)-2-[5-[4-[4-[[4-[(1,1-dioxo-1,4-thiazinan-4-yl)methyl]phenyl]carbamoyl]phenyl]phenyl]-1H-imidazol-2-yl]-1-piperidyl]-2-oxo-1-phenyl-ethyl]carbamate], for which the IC50 in data set [1] (read-out: HCV IC50 Elisa 1a) was 95 nM; in data set [1] (setting [4]), 95.5 nM; in data set [2] (read-out: HCV IC50 1b Replicon) it was 0.79 nM; in data set [2] (setting [5]), 0.794 nM.

On to `CC(C)(C)OC(=O)N[C@H](C(=O)N1CCCC[C@H]1c1ncc(-c2ccc(-c3ccc(C(=O)Nc4ccc(CN5CCS(=O)(=O)CC5)cc4)cc3)cc2)[nH]1)c1ccccc1` [Example 52, tert-Butyl N-[(1S)-2-[(2S)-2-[5-[4-[4-[[4-[(1,1-dioxo-1,4-thiazinan-4-yl)methyl]phenyl]carbamoyl]phenyl]phenyl]-1H-imidazol-2-yl]-1-piperidyl]-2-oxo-1-phenyl-ethyl]carbamate], for which the IC50 is 185 nM in data set [1] (read-out: HCV IC50 Elisa 1a), 186 nM in data set [1] (setting [4]), 0.41 nM in data set [2] (read-out: HCV IC50 1b Replicon) and 0.407 nM in data set [2] (setting [5]).

Take `CN(C)[C@@H](C(=O)N1CCCC[C@H]1c1ncc(-c2ccc(-c3ccc(C(=O)Nc4ccc(CN5CCS(=O)(=O)CC5)cc4)cc3)cc2)[nH]1)c1ccccc1` [Example 53, 4-[4-[2-[(2S)-1-[(2R)-2-(dimethylamino)-2-phenyl-acetyl]-2-piperidyl]-1H-imidazol-5-yl]phenyl]-N-[4-[(1,1-dioxo-1,4-thiazinan-4-yl)methyl]phenyl]benzamide]: the IC50 in data set [1] (read-out: HCV IC50 Elisa 1a) was 324 nM; in data set [1] (setting [4]) it was 324 nM; in data set [2] (read-out: HCV IC50 1b Replicon) it was 0.82 nM; in data set [2] (setting [5]), 0.813 nM.
